target: T1, GFRα1-RET (Homo sapiens, UniProt P56159); experiment: Luciferase assay: activation of Elk1 signaling in reporter-gene cells expressing GFRα1-RET (MG87 murine fibroblast stably transfected with PathDetect Elk-1, GFRα1, and RET); type: cell-based; details: Table 4; MG87 murine fibroblasts with PathDetect Elk-1, GFRα1, RET; 6 concentrations, duplicate, two times independently; agonist/activator activity; read-out: Luciferase Assay EC50
T1 construct: expressed in transfected cells; host or cells: MG87 murine fibroblast
T1 sequence (P56159 25-429 limits assumed): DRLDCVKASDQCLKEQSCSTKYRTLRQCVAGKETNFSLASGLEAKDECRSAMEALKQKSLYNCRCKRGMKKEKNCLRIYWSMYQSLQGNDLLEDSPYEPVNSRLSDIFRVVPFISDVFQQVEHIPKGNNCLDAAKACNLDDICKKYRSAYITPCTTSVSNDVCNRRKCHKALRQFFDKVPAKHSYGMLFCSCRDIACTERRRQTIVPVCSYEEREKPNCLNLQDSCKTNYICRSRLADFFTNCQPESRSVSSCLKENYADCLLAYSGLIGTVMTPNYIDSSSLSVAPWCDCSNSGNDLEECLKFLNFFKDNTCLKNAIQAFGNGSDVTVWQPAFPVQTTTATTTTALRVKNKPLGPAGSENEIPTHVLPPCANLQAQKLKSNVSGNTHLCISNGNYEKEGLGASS
T1 sequence (P07949 29-1114 partner): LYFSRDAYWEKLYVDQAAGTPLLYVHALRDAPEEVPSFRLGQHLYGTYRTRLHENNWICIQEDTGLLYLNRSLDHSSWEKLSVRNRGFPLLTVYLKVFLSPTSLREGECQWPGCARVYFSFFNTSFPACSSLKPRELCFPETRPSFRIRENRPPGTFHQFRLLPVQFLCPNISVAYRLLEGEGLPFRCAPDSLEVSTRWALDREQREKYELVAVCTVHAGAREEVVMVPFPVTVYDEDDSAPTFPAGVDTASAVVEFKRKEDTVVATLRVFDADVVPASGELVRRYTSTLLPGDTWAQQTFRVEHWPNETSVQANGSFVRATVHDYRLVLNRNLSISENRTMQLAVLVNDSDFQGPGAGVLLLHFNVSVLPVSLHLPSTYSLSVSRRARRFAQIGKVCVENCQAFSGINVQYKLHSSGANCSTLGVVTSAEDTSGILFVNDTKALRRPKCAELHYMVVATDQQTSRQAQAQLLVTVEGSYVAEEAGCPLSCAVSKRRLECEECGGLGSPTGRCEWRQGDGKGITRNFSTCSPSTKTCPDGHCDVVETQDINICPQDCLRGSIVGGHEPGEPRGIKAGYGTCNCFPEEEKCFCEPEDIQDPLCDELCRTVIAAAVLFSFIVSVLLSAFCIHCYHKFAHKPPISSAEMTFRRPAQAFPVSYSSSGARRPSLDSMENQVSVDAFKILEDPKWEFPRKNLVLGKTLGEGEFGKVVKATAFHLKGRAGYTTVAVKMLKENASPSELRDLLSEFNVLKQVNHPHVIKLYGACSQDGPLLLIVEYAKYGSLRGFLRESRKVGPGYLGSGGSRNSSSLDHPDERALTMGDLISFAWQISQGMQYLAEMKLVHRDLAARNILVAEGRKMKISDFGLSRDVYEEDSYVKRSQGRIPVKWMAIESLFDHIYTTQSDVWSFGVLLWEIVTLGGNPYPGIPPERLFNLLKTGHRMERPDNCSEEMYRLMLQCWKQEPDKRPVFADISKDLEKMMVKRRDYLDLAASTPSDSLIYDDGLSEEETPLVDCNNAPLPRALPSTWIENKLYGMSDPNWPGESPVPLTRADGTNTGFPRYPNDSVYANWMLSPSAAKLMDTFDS
Protocol: The purpose of this experiment was to evaluate the GFRα1-RET activity of the compounds 001-060 according to the invention.
The compounds were tested for their activating activity of Elk1 signaling using the previously developed reporter-gene-based system in cells expressing GFRα1-RET (MG87 murine fibroblast stably transfected with PathDetect Elk-1, GFRα1, and RET) disclosed in Sidorova, Y. A. et al.: “Persephin signaling through GFRα1: The potential for the treatment of Parkinson's disease.” Molecular and Cellular Neuroscience, July 2010, Vol. 44, pp. 223-232. DOI: 10.1016/j.mcn.2010.03.009. For EC50 determination, a dose-response test was performed using 6 concentrations of each tested compound. Dose-response curves were fitted using the sigmoidal dose-response (variable slope) analysis in GraphPad Prism program (Graph Pad Inc) and EC50 of agonist/activator activity was calculated. Dose-response experiments were all performed in duplicate, two times independently.
The compounds were tested for their activating activity of Elk1 signaling using the same materials and methods than for the compounds according to the invention (Example 2 herein, section “Materials and methods”).

EC50 [µM] | Structure (SMILES)
10 to 50 | COc1ccc(S(=O)(=O)N2CC3CCC2C3)cc1N1CCN(C(=O)c2ccc(F)cc2Cl)CC1 (stereo not shown) [Compound 036, (2-chloro-4-fluoro-phenyl)-[4-[2-methoxy-5-[[2-azabicyclo[2.2.1]heptan-2-yl]sulfonyl]phenyl]piperazin-1-yl]methanone]
< 1 | COc1ccc(S(=O)(=O)N2CCC(=Cc3ccccc3)CC2)cc1N1CCN(C(=O)c2ccc(F)cc2Cl)CC1 [Compound 023, [4-[5-[(4-benzylidene-1-piperidyl)sulfonyl]-2-methoxy-phenyl]piperazin-1-yl]-(2-chloro-4-fluoro-phenyl)methanone]
< 1 | CC(C)(C)NS(=O)(=O)c1cc(Cl)c(O)c(N2CCN(C(=O)c3ccc(F)cc3Cl)CC2)c1 [Compound 058, N-tert-butyl-3-chloro-5-[4-(2-chloro-4-fluoro-benzoyl)piperazin-1-yl]-4-hydroxy-benzenesulfonamide]
5 to 10 | COc1ccc(S(=O)(=O)N(C)CC2CCCCC2)cc1N1CCN(C(=O)c2ccc(F)cc2Cl)CC1 [Compound 015, 3-[4-(2-chloro-4-fluoro-benzoyl)piperazin-1-yl]-N-(cyclohexylmethyl)-4-methoxy-N-methyl-benzenesulfonamide]

— patent US20260356810A1, “NOVEL PIPERAZINE-BASED SULFONAMIDES AND THEIR USE AS NEUROPROTECTIVE AND/OR NEURORESTORATIVE AGENTS” (GENECODE, priority 2022, published 2026)
